How the values were obtained:
rat tibia cortical bone [1] = assay: Rat tibia cortical bone implantation, histology and bone-implant contact histomorphometry; format: in vivo; settings: 4 weeks; for histology: bone matrix around implants: poly(OEGMA) brush implants, 0.9 pmol/cm^2
Method: (§1) Commercially pure titanium implants (FIG. 4) were sonicated in de-ionized water for 20 min to remove surface debris. Implants were then dipped in 4% HF for 30 sec to remove the existing oxide layer and then incubated in 35% HNO3 for 30 min at 50° C. to regenerate a new oxide coating. Samples were transferred to 1.8 N NaOH for 1 min to terminate the oxidation reaction. Implants were then rinsed and boiled in de-ionized water for 1 h. To create the bioactive coating, the implants were incubated in 20 μg/ml GFOGER peptide (SEQ ID NO:1) or type I collagen solution for 1 h. Control titanium rods were incubated in PBS.
(§2) Implantations were conducted in accordance with an IACUC-approved protocol. Both hind legs of anesthetized, mature Sprague-Dawley male rats (250-350 g) were shaved and scrubbed with alcohol. The medial aspect of the proximal tibial metaphysis was exposed through an antero-medial skin incision, leaving the medial collateral ligament intact. Using a saline-cooled drill, two defects were created in each tibia. Sterile implant rods were press fit into the defects. Periosteum was mobilized and sutured over the implantation site, and the skin was closed with wound clips. Subjects were euthanized after 4 weeks and proximal tibiae were fixed in neutral buffered formalin for histology or recovered without fixation and maintained in PBS-moistened gauze for immediate mechanical testing.
Excised tibiae were fixed in 10% neutral buffered formalin for 1 week. […] Ground sections of 50-80 μm were generated using the Exakt Grinding System™. Two longitudinal ground sections were generated per tibia, each containing two titanium plugs inserted transverse to the tibia's long axis. Sections were then stained with Sanderson's Rapid Bone Stain™ and a van Gieson counter stain. Bone implant contact (BIC) was measured as the percentage of implant's circumference that was in direct contact with bone tissue (Adobe Photoshop® CS imaging software).
(§3) To evaluate the performance of the bioactive GFOGER peptide (SEQ ID NO:1) treatment in vivo, osseointegration in a rat tibia cortical bone model was quantified using quantitative histomorphometry and pull-out mechanical testing. A cylindrical titanium implant rod with a tapered stop collar was designed (FIG. 4). The tapered head ensures that all implants are inserted into the bone at the same depth, guaranteeing uniform bone contact among treatments. Using a saline-cooled drill, two defects 2 mm in diameter were created in the medial aspect of the proximal tibial metaphysis. Implant rods consisting of GFOGER peptide (SEQ ID NO:1) functionalized or untreated (control) titanium were press fit into the cortical defects. After four weeks, the rat tibiae were harvested and evaluated for bone apposition by histological staining and mechanical integration by pull-out testing. […] Representative micrographs show 50-80 μm longitudinal ground sections of rat tibia stained with Sanderson's Rapid Bone Stain™ and van Gieson counterstain. Cells stain dark to light blue, soft tissue elements stain blue-green, and bone matrix stains yellow orange to autumn orange.
(§4) Osseointegration of implants in a rat tibia cortical bone model was quantified to evaluate the in vivo performance of the engineered titanium surfaces in bone healing. Importantly, this in vivo model provides a rigorous platform to evaluate implant coating function in a relevant orthopaedic setting. Two 2.0-mm diameter defects were drilled into the medial aspect of the proximal tibial metaphysis using a saline cooled drill. Tapered cylindrical implants (FIG. 4) of clinical-grade titanium were press-fit into the cortical defects.

[2] = system: bone marrow stromal cells; assay: Osteoblast-specific gene expression by qRT-PCR; format: cell-based, rat
Method: Primary bone marrow stromal cells were harvested from the femora of young adult male Wistar rats in accordance with an IACUC-approved protocol. After excision, hindleg femora and tibiae were cleared of soft tissue and rinsed in growth medium (α-minimal essential medium supplemented with 10% fetal bovine serum, 1% penicillin-streptomycin, and 0.3 μg/ml amphotericin B). The ends of the long bones were then removed and the marrow space was flushed with culture medium (3-5 ml), using a syringe with an 18-gauge needle. Marrow isolates were pooled, centrifuged, resuspended in growth medium, and seeded for adhesion-dependent selection on tissue culture polystyrene dishes. Non-adherent hematopoietic cells were removed during subsequent medium exchanges, which occurred every other day. Cells were subcultured every two days according to standard techniques. For in vitro osteogenic assays, cells were seeded at 10,000 cells/cm^2 in growth medium. After 24 h, cultures were maintained in osteogenic medium consisting of growth medium supplemented with 50 μg/ml L-ascorbic acid and 3 mM sodium β-glycerophosphate.
Gene expression was analyzed by qRT-PCR. Total RNA was isolated at 7 days in culture using the Qiagen RNeasy RNA isolation kit. During RNA isolation and purification, samples were treated with DNaseI (27 Kunitz units/sample) for 15 min at room temperature to eliminate any genomic DNA contamination. The concentration of purified RNA was quantified using a NanoDrop™ (NanoDrop Technologies) and 1 μg of total RNA was used to synthesize cDNA templates by oligo(dT) priming using the Superscript First-Strand cDNA Synthesis System™.
qRT-PCR was performed with the ABI Prism 7700 Sequence Detection System (Applied Biosystems; 40 cycles; melting for 15 s at 95° C.; annealing and extending for 60 s at 60° C.) using SYBR Green DNA intercalating dye. Gene transcript concentration in the sample cDNA template solutions was quantified by preparing a functional range of dilutions from an absolute standard for each gene. Linear standard curves were then generated by plotting the log of the known concentration versus the CT value (the cycle number at which the fluorescence reached a threshold level). Oligonucleotide primers (Table 1) were designed using Primer Express™ software (Applied Biosystems).

rat tibia cortical bone [3] = assay: Rat tibia cortical bone implantation, pull-out mechanical testing; format: in vivo
Method: as §1, §2, §3, §4

[4] = 7-day cultures, tethered brushes vs RGD supports
[5] = 4 weeks, tethered brushes 0.9 pmol/cm^2
[6] = 7 day cultures, adsorbed coating vs untreated titanium

For “FNIII7-10: monobiotinylated recombinant fibronectin fragment spanning the 7-10th type III repeats of fibronectin; α5β1 integrin ligand”, the bone-implant apposition (rat tibia cortical bone [1]; passively coated (20 μg/ml) vs unmodified titanium or pFN-coated) was “enhanced bone-implant apposition”, the “histology: bone matrix around implants” value (rat tibia cortical bone [1]) was “extensive and contiguous bone matrix” and the “bone-implant contact area vs unmodified titanium implant” value (rat tibia cortical bone [1]; tethered brush implants) was “significantly higher”. For the same substance, the “bone sialoprotein (BSP) transcript levels” value [2, 4] was “increased transcript levels”, the “osteocalcin (OCN) transcript levels” value [2, 4] was “increased transcript levels” and the Runx2/Cbfa1 expression levels ([2]; 7-day cultures, tethered brushes vs equimolar RGD brushes) was “elevated”. For the same substance, the “mechanical fixation vs unmodified titanium” value (rat tibia cortical bone [3]; 4 weeks, tethered brushes) was “higher mechanical fixation”, the “enhancement in fixation over RGD-tethered implants” value (rat tibia cortical bone [3]; [5]) was 2.9 fold and the “improvement in fixation compared to unmodified poly(OEGMA) brush coating” value (rat tibia cortical bone [3]; [5]) was ~4 fold. For the same substance, the “dependence of mechanical fixation on tethered surface density” value (rat tibia cortical bone [3]; varying tethered densities, hyperbolic relationship R^2=0.87) was “increased with FNIII7-10 surface density”.
With “GGYGGGPC(GPP)5GFOGER(GPP)5GPC [GFOGER peptide]” the “bone apposition (bone implant contact, BIC)” value (rat tibia cortical bone [1]; passively coated implants vs untreated titanium) was “nearly two-fold enhancement”, the “histology: peri-implant bone mineral” value (rat tibia cortical bone [1]; passively coated titanium implants (20 μg/ml)) was “substantial and contiguous bone mineral” and the Runx2/Cbfa1 expression levels [2, 6] was “elevated”. For the same substance, the “bone sialoprotein gene expression” value [2, 6] was “greater levels of gene expression”, the osteocalcin gene expression [2, 6] was “greater levels of gene expression” and the “mechanical fixation (pull-out force)” value (rat tibia cortical bone [3]; 4 weeks, vs type I collagen or untreated titanium) was “significantly higher mechanical fixation”.
With “GRGDSPC [RGD peptide, linear RGD oligopeptide purchased from BACHEM; primarily supports αvβ3-mediated adhesion, reference compound]” the “histology: bone matrix around implants” value (rat tibia cortical bone [1]) was “Less bone tissue was observed”, the “any differentiation marker vs serum-exposed unmodified titanium” value ([2]; tethered brushes) was “No differences were observed” and the “bone apposition and mechanical fixation among brush implant groups” value (rat tibia cortical bone [3]; 4 weeks, poly(OEGMA) brush implants) was “no differences in bone apposition or mechanical fixation”.

Source: patent US8445006B2, “Biomolecular coating for implants” (Georgia Tech Research Corporation, priority 2006, dated 2013)
